Laboratory results: patent US9220680B2, “Compositions and methods for localized drug delivery through mammary papillae” (South Dakota State University, priority 2012, dated 2015)
Where “and” joins values, the source holds several entries; their conditions need not be identical. Equal entries are not always repeated.

Experiments:
[1] = Transmammary permeation across porcine mammary papilla with and without removal of the keratin plug (Experiments 7-10); format: in vitro ADME
Source text: Keratin plug was removed from human and porcine mammary papilla using an alcoholic cotton swab. The swab was gently rubbed on the surface of the mammary papilla. The mammary papilla was observed under the microscope to confirm the removal of the plug from the surface and to confirm that epidermis of the mammary papilla was not damaged during this procedure.
The drug solutions were spiked with radioactive substances. […] Receptor medium was PBS with 7.4 pH.
(§1) Mammary papillae tissues were thawed. Keratin plugs were removed from the mammary papilla tissues using swabs with ethanol. […] The drug solutions were spiked with radioactive substances. […] Receptor medium was PBS with 7.4 pH.
as §1
Mammary papillae tissues were thawed. Keratin plugs were removed from the mammary papilla tissues using swabs with ethanol. […] The drug solutions were spike with radioactive substances. […] Receptor medium was PBS with 7.4 pH.

[2] = Transmammary permeation across human mammary papilla with and without removal of the keratin plug (Experiments 12-18); format: in vitro ADME; settings: for lag time / cumulative amount permeated / Drug retention in tissue / Flux: value (SEM); for cumulative amount permeated: 48 hours; for Drug retention in tissue: end of 48 hours; for Increase in permeation across the tissues upon removal of the keratin plugs: human mammary papilla
Source text: Mammary papillae tissues were thawed. […] The drug solutions were spiked with radioactive substances. […] Receptor medium was PBS with 7.4 pH. […] Results may be seen in FIG. 37 and Table 13.
Mammary papillae tissues were thawed. […] The drug solutions were spiked with radioactive substances. […] Receptor medium was PBS with 7.4 pH. […] Results may be seen in FIG. 38 and Table 15.
Mammary papillae tissues were thawed. […] The drug solutions were spiked with radioactive substances. […] Receptor medium was PBS with 7.4 pH. […] Results may be seen in FIG. 39 and Table 17.
Mammary papillae tissues were thawed. […] The drug solutions were spiked with radioactive substances. […] Receptor medium was PBS with 7.4 pH. […] Results may be seen in FIG. 40.
Mammary papillae and skin tissues were thawed. […] The drug solutions were spiked with radioactive substances. […] Receptor medium was PBS with 7.4 pH. […] Results may be seen in FIG. 41 and Table 20.
Mammary papillae and skin tissues were thawed. […] The drug solutions were spiked with radioactive substances. […] Receptor medium was PBS with 7.4 pH. […] Results may be seen in FIG. 42 and Table 22.
Mammary papillae tissues were thawed. […] The drug solutions were spiked with radioactive substances. […] Receptor medium was PBS with 7.4 pH. […] Results may be seen in FIG. 43 and Table 24.

[3] = Permeation across human breast skin (Experiments 16-18); format: in vitro ADME
Source text: Mammary papillae and skin tissues were thawed. Keratin plugs were removed from the mammary papilla tissues using swabs with ethanol. […] The drug solutions were spiked with radioactive substances. […] Receptor medium was PBS with 7.4 pH. […] Results may be seen in FIG. 41 and Table 20.
Mammary papillae and skin tissues were thawed. Keratin plugs were removed from the mammary papilla tissues using swabs with ethanol. […] The drug solutions were spiked with radioactive substances. […] Receptor medium was PBS with 7.4 pH. […] Results may be seen in FIG. 42 and Table 22. […]

[4] = Dye penetration study of mammary papilla, confocal and fluorescence microscopy; format: in vitro ADME, porcine; settings: 12 hours treatment; 2 mm section from middle of papilla; confocal laser scanning microscopy
Procedure: For dye penetration studies, 10 mM of the dye sulforhodamine B (SRB) in 1:1 of ethanol:phosphate buffer and 0.32 mM of Nile Red (NR) in propylene glycol were applied on the mammary papillae for 12 hours. At the end of the study, the tissue was washed, cut into 2 mm thick sections as described earlier and placed on a glass slide for confocal microscopy study. Confocal images of mammary papilla were taken from approximately […] below the surface of the mammary papilla.
Mammary papillae were treated with each dye for 12 hours. Then, starting from tip, 2 mm thick sections of papillae were taken (FIG. 8). Section B was taken from middle of mammary papilla and studied with confocal laser scanning microscopy. From this 2 mm thick section, xy dimensional images were taken at different depths starting from 0 to 500 μm. Because xy views are taken at different depths (the dimension z), these are xyz images. The upper image is an xyz view after treatment with hydrophilic dye SRB. […] The xz views of the mammary papillae were also analyzed.
Fluorescence Microscopy. To verify the confocal data, cryo-sectioning of mammary papillae was performed after 12 hours treatment with the dyes. […] Sections from various different depths of the papilla and studied by fluorescence microscopy. […]

[5] = cited from earlier work
[6] = In vitro penetration and permeation via excised porcine mammary papilla, Franz diffusion cell (Example 1); format: in vitro ADME
Procedure: Drug penetration and permeation via mammary papillae was performed in a Franz diffusion cell using excised porcine mammary papilla. […] The transport studies were performed at time points for 6 and 48 hours.
In a separate study to evaluate the drug retention and disposition, the treatment was removed after 6 hours and the study was continued until the 48 hour mark. Samples were withdrawn from the receptor compartment at different time points. At the end of study, the mammary papilla was cut to 2 mm thick cylindrical sections from the top to the base of the tissue and was digested using a tissue solubilizer. The drug concentrations were determined by liquid scintillation counting.
Methods for the preparation of porcine mammary papilla. Freshly excised strips of porcine mammary papilla (6-7 months old animals) were washed with deionized water followed by removal of subcutaneous fatty tissue using a scalpel. Keeping the mammary papilla in the center, 3 cm×3 cm sized specimens of the tissue were excised, subcutaneous fat tissue was removed, and the tissue was frozen at −20° C. until used for the drug penetration and permeation studies.
Breast tissue was mounted between the two compartments of a vertical Franz diffusion cell (FDC) with breast tissue sandwiched between donor and receptor compartments. A mammary papilla was set in upright position inside the donor compartment of Franz diffusion cell. […] Samples were withdrawn from the receptor at different time points for 48 hours to determine drug concentration by radioactive count. At the end of 48 hours, tissue samples were taken for drug content determination. […]
In a second study, the mammary papillae in Franz diffusion cells were treated with the drugs for 48 hours and the permeation was followed through 48 hours. This analysis provided information regarding any saturation from drug treatment for extended periods of time. […]
Extraction of drugs from the mammary papilla. At the end of permeation study, the mammary papilla was removed from Franz diffusion cell and thoroughly washed with deionized water and blotted dried. Approximately 2 mm thick sections of the tissue were taken using a scalpel. These sections were homogenized, the drug was extracted, and the drug concentration was determined by radioactive counts.

[7] = dextran 10 mg/ml, human mammary papilla with keratin plug removal, *Values multiplied by 1000
[8] = dextran 10 mg/ml, human mammary papilla without keratin plug removal, *Values multiplied by 1000
[9] = porcine mammary papilla after keratin plug removal, 48 hours, n=4
[10] = porcine mammary papilla after keratin plug removal, end of 48 hours
[11] = porcine mammary papilla after keratin plug removal, end of 48 hours, n=4
[12] = EST 15 mg/ml, human mammary papilla with keratin plug removal
[13] = EST 15 mg/ml, human mammary papilla without keratin plug removal
[14] = excised porcine mammary papilla, saturated solution in ethanol:water (50:50), 48 h, mean ± SEM, n=3
[15] = porcine mammary papilla, end of 48 h, mean ± SEM, n=3

dextran
Increase in permeation upon removal of the keratin plugs ([1]; porcine mammary papilla, 10 mg/ml in 50:50 ethanol:water, 48 hours): approximately 2 folds
lag time ([2]; dextran 10 mg/ml in 50:50 ethanol:water, human mammary papilla with keratin plug removal): 9.63 (0.90) hours
cumulative amount permeated [2, 7]: 119.42 (19.35)* μmole
Drug retention in tissue [2, 7]: 789.33 (99.11)* umole/g of tissue
cumulative amount permeated [2, 8]: 16.54 (7.32)* μmole
Drug retention in tissue [2, 8]: 89.88 (19.26)* umole/g of tissue
lag time ([2]; dextran 10 mg/ml, human mammary papilla without keratin plug removal): 14.74 (1.41) hours
Increase in permeation across the tissues upon removal of the keratin plugs [2]: more than 7 fold
Penetration via human breast skin (in words) ([3]; 48 hrs treatment): no penetration of dextran even with 48 hrs treatment
lag time ([3]; dextran 10 mg/ml in 1:1 ethanol:water, human breast skin, value (SEM)): 30.15 (3.04) hours

CCN(CC)c1ccc2c(-c3ccc(S(=O)(=O)O)cc3S(=O)(=O)[O-])c3ccc(=[N+](CC)CC)cc-3oc2c1 [SRB, sulforhodamine B]
Distribution of dye fluorescence in mammary papilla [4]: distribution of the dye in both the ducts and in the surrounding tissue
Log P [5]: −0.74

inulin
Transmammary flux ([1]; porcine mammary papilla): 0.33 μg/sq·cm/h
lag time ([1]; porcine mammary papilla after keratin plug removal, 10 mg/ml in 50:50 ethanol:water, n=4): 16.7 h and 16.78 h
Drug permeation (% of applied dose) [1, 9]: 0.37 % of applied dose
cumulative amt. permeated [1, 9]: 0.0037 µmol
Amount permeated across the tissue [1, 10]: 18.37 µg
Amount retaining into the tissue [1, 10]: 41.28 µg
Drug retention in tissue (% of applied dose) [1, 11]: 0.83 % of applied dose
Skin retention [1, 11]: 0.023 umole/g of tissue
Total drug retention in tissue [1, 11]: 0.0083 µmol
Flux ([1]; porcine mammary papilla after keratin plug removal, n=4): 0.000066 μmole/sq.cm/hr

C[C@]12CC[C@@H]3c4ccc(O)cc4CC[C@H]3[C@@H]1CC[C@@H]2O [EST, estradiol]
Change of permeation upon removal of the keratin plugs (in words) ([1]; porcine mammary papilla, donor in 50:50 ethanol:water, 48 hours): increases significantly
lag time ([2]; EST 15 mg/ml in 50:50 ethanol:water, human mammary papilla with keratin plug removal): 2.08 (0.28) hours
cumulative amount permeated [2, 12]: 2.62 (0.97) μmole
Drug retention in tissue [2, 12]: 6.25 (2.12) umole/g of tissue
Flux [2, 12]: 0.09 (0.03) μmole/cm^2/hour
cumulative amount permeated [2, 13]: 0.58 (0.06) μmole
Drug retention in tissue [2, 13]: 1.06 (0.04) umole/g of tissue
Flux [2, 13]: 0.01 (0.00) μmole/cm^2/hour
lag time [2, 13]: 7.02 (0.94) hours
Permeation profile via human vs porcine mammary papillae ([2]; after keratin plug removal, 48 hours (Experiment 15)): similar
Increase in permeation across the tissues upon removal of the keratin plugs [2]: more than 10 fold
Lag time ([6]; excised porcine mammary papilla, Franz diffusion cell, saturated solution in ethanol:water (50:50), 48 h, mean ± SEM, n=3): 7.07 ± 0.29 h
Cumulative % permeated [6, 14]: 1.03 ± 0.08%
Flux × 10^3 [6, 14]: 2.57 ± 0.15 μM · cm^2 · hr^−1
Permeability coefficient × 10^3 [6, 14]: 0.05 ± 0.002 cm^2 · hr^−1
cumulative amount permeated [6, 14]: 0.23 ± 0.02 µM
Cumulative % retained [6, 15]: 4.52 ± 0.59%
Drug extraction from 2 mm thick mammary papilla sections, Section A (tip) [6, 15]: 5.45 ± 0.49 µM/g
Drug extraction from 2 mm thick mammary papilla sections, Section B [6, 15]: 3.63 ± 0.26 µM/g
Drug extraction from 2 mm thick mammary papilla sections, Section C [6, 15]: 2.53 ± 0.31 µM/g
Drug extraction from 2 mm thick mammary papilla sections, Section D (base) [6, 15]: 1.55 ± 0.53 µM/g
Permeation across mammary papilla (in words) ([6]; porcine mammary papilla, treatment up to 48 hours): significant EST transport across the mammary papilla
Log P [5]: 3.6
lag time ([3]; EST 15 mg/ml in 50:50 ethanol:water, human breast skin, value (SEM)): 0.56 (0.22) hours
cumulative amount permeated ([3]; EST 15 mg/ml, human breast skin, 48 hours, value (SEM)): 2.10 (0.16) μmole
Drug retention in tissue ([3]; EST 15 mg/ml, human breast skin, end of 48 hours, value (SEM)): 2.94 (0.30) umole/g of tissue
Flux ([3]; EST 15 mg/ml, human breast skin, value (SEM)): 0.07 (0.01) μmole/cm^2/hour

CCN(CC)c1ccc2nc3c4ccccc4c(=O)cc-3oc2c1 [NR, Nile Red]
Distribution of dye fluorescence in mammary papilla [4]: observed only in and around the ducts
Log P [5]: 3.8
